Patent US10428080B2, “TBK/IKK inhibitor compounds and uses thereof” (Merck Patent GmbH, priority 2015, dated 2019)
Where a name gives a salt, the structure may show the parent alone.

Legend:
IKKε = target: T1, IKKε (Homo sapiens, UniProt Q14164); experiment: IKKe Biochemical Assay; settings: read-out: IKKε IC50
T1 sequence (Q14164 1-716): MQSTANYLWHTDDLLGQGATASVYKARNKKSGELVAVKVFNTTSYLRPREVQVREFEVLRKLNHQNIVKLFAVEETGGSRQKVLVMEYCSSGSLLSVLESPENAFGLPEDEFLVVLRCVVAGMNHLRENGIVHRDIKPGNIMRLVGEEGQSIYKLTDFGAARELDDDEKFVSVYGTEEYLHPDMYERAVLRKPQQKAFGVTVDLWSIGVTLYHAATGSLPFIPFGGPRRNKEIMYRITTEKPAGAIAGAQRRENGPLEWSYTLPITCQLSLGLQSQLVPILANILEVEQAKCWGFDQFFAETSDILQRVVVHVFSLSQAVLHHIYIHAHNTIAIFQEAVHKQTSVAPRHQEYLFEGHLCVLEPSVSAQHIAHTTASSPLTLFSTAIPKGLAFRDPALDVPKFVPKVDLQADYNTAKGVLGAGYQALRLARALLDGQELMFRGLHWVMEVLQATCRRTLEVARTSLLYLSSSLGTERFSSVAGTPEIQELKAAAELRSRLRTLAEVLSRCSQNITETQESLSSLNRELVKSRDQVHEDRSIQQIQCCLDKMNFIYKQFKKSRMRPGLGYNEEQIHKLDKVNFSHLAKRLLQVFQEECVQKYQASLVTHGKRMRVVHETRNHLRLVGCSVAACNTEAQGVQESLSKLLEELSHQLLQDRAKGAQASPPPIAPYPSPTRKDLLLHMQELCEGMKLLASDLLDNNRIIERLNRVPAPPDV
How it was run: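 Activity was measured as mobility-shift separation of phosphorylated from unphosphorylated substrate on a LabChip EZ Reader. Compound was titrated from 30 uM final in 10 points, 1:4 steps, with 1% DMSO, and enzyme plus substrate reacted 90 min at 25° C before stop buffer. Control wells held 10 uM staurosporine.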

TBK1 = target: T2, TBK1 (Homo sapiens, UniProt Q9UHD2); experiment: TBK Biochemical Assay; settings: read-out: TBK1 IC50
T2 sequence (Q9UHD2 1-729): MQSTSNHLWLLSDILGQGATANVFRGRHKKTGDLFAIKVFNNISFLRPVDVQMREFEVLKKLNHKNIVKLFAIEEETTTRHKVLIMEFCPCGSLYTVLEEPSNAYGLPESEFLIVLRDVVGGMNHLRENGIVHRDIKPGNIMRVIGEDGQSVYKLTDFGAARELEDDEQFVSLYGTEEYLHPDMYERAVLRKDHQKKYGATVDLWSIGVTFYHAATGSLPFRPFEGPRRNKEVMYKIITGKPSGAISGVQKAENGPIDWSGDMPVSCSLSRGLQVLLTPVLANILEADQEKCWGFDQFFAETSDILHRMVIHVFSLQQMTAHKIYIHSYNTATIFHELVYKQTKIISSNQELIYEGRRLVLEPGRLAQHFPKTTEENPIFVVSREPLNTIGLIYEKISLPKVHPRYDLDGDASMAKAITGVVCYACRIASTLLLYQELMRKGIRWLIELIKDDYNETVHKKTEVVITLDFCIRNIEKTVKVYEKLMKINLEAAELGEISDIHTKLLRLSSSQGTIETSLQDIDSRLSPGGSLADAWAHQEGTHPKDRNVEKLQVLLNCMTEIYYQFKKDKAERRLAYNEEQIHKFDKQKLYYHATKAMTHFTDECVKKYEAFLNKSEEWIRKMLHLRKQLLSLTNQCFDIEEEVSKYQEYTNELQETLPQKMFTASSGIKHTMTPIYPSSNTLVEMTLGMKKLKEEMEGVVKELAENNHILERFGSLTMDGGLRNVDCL
How it was run: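 Caliper LabChip mobility-shift readout of substrate and product after 90 min of TBK1 reaction at 25° C and stop-buffer addition. Compounds tested in 1:4 serial dilution over 10 points from 30 uM final at 1% DMSO; staurosporine 10 uM final defines full inhibition.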

| IC50 (IKKε) [nM] | IC50 (TBK1) [nM] | Compound |
| --- | --- | --- |
| < 100 | < 100 | COc1cc(C(=O)N2CC[C@@H](O)C2)ccc1-c1cc2nccc(-c3ccc(NC4CCOCC4)c(C#N)c3)c2o1 [Compound 95, 5-{2-[4-((R)-3-Hydroxy-pyrrolidine-1-carbonyl)-2-methoxy-phenyl]-furo[3,2-b]pyridin-7-yl}-2-(tetrahydro-pyran-4-ylamino)-benzonitrile] |
| 100 to 1000 | 100 to 1000 | C[C@@H]1COC[C@H](C)[C@@H]1Oc1ccc(-c2ccnc3cc(-c4ccc(C(=O)N(C)C)cc4)oc23)cc1C#N (single isomer, unassigned) [Compound 221, 4-(7-(3-cyano-4-(3,5-dimethyl-tetrahydro-2H-pyran-4-yloxy)phenyl)furo[3,2-b]pyridin-2-yl)-N,N-dimethylbenzamide hydrochloride] |
| > 5000 | > 5000 | COc1cc(C(=O)N(C)CCO)ccc1-c1cc2ncc(C3CC3)c(-c3ccc(NC4CCOCC4)c(C#N)c3)c2o1 [Compound 305, 4-(7-[3-cyano-4-[(oxan-4-yl)amino]phenyl]-6-cyclopropylfuro[3,2-b]pyridin-2-yl)-N-(2-hydroxyethyl)-3-methoxy-N-methylbenzamide] |
| < 100 | < 100 | COc1cc(C(=O)NC2CCOCC2)ccc1-c1cc2nccc(-c3ccc(OC4CCOCC4)c(C#N)c3)c2o1 [Compound 83, 4-{7-[3-Cyano-4-(tetrahydro-pyran-4-yloxy)-phenyl]-furo[3,2-b]pyridin-2-yl}-3-methoxy-N-(tetrahydro-pyran-4-yl)-benzamide] |
| 100 to 1000 | 100 to 1000 | CN(C)C(=O)c1ccc(-c2cc3nccc(-c4ccc(NC5CCOCC5)c(C#N)c4)c3o2)nc1 [Compound 244, 6-(7-(3-cyano-4-(tetrahydro-2H-pyran-4-ylamino)phenyl)furo[3,2-b]pyridin-2-yl)-N,N-dimethylnicotinamide] |
| < 100 | < 100 | COc1cc(C(=O)N2CCC3(CCC3)C2)ccc1-c1cc2nccc(-c3ccc(OC4CCOCC4)c(C#N)c3)c2o1 [Compound 114, 5-{2-[4-(6-Aza-spiro[3.4]octane-6-carbonyl)-2-methoxy-phenyl]-furo[3,2-b]pyridin-7-yl}-2-(tetrahydro-pyran-4-yloxy)-benzonitrile] |
| 100 to 1000 | 100 to 1000 | CN(C)C(=O)c1ccc(-c2cc3nccc(-c4ccc(Oc5cccnc5)c(C#N)c4)c3o2)cc1 [Compound 181, 4-{7-[3-Cyano-4-(pyridin-3-yloxy)-phenyl]-furo[3,2-b]pyridin-2-yl}-N,N-dimethyl-benzamide] |
| > 5000 | > 5000 | COc1cc(C(=O)N(C)CCO)cnc1-c1cc2ncc(C(C)C)c(-c3ccc(OC4CCOCC4)c(C#N)c3)c2o1 [Compound 333, 6-[7-[3-cyano-4-(oxan-4-yloxy)phenyl]-6-(propan-2-yl)furo[3,2-b]pyridin-2-yl]-N-(2-hydroxyethyl)-5-methoxy-N-methylpyridine-3-carboxamide] |
| 1000 to 5000 | 1000 to 5000 | COc1cc(C(=O)N(C)C)cnc1-c1cc2ncc(OC)c(-c3ccc(NC4CCOCC4)c(C#N)n3)c2o1 [Compound 358, 6-(7-[6-cyano-5-[(oxan-4-yl)amino]pyridin-2-yl]-6-methoxyfuro[3,2-b]pyridin-2-yl)-5-methoxy-N,N-dimethylpyridine-3-carboxamide] |
| 100 to 1000 | 100 to 1000 | CN(C)C(=O)c1ccc(-c2cc3nccc(-c4ccc(O[C@H]5CCCOC5)c(C#N)c4)c3o2)cc1 [Compound 174, 4-(7-{3-Cyano-4-[(S)-(tetrahydro-pyran-3-yl)oxy]-phenyl}-furo[3,2-b]pyridin-2-yl)-N,N-dimethyl-benzamide] |
| < 100 | < 100 | CN(C)C(=O)c1ccc(-c2cc3nccc(-c4ccc(N5CC[C@H](F)C5)c(C#N)c4)c3o2)nc1 (single isomer, unassigned) [Compound 272, 6-(7-(3-cyano-4-(3-fluoropyrrolidin-1-yl)phenyl)furo[3,2-b]pyridin-2-yl)-N,N-dimethylnicotinamide hydrochloride] |
| 100 to 1000 | 100 to 1000 | CN(C)C(=O)c1ccc(-c2cc3nccc(-c4ccc(NC5CCOCC5)c(C#N)c4)c3o2)c(F)c1 [Compound 250, 4-(7-(3-cyano-4-(tetrahydro-2H-pyran-4-ylamino)phenyl)furo[3,2-b]pyridin-2-yl)-3-fluoro-N,N-dimethylbenzamide] |
| < 100 | < 100 | CCc1cc(C(=O)N(C)C)ccc1-c1cc2nccc(-c3ccc(OC4CCOCC4)c(C#N)c3)c2o1 [Compound 263, 4-(7-(3-cyano-4-(tetrahydro-2H-pyran-4-yloxy)phenyl)furo[3,2-b]pyridin-2-yl)-3-ethyl-N,N-dimethylbenzamide] |
| 1000 to 5000 | 1000 to 5000 | COc1cc(C(=O)N(C)C)cnc1-c1cc2ncc(C)c(-c3ccc(NC4CCOCC4)c(C#N)c3)c2o1 [Compound 319, 6-(7-(3-cyano-4-(tetrahydro-2H-pyran-4-ylamino)phenyl)-6-methylfuro[3,2-b]pyridin-2-yl)-5-methoxy-N,N-dimethylnicotinamide] |
| < 100 | < 100 | COc1cc(C(=O)N(C)C)ccc1-c1cc2nccc(-c3ccc(N(C)C4CCOCC4)c(C#N)c3)c2o1 [Compound 227, 4-(7-(3-cyano-4-(methyl(tetrahydro-2H-pyran-4-yl)amino)phenyl)furo[3,2-b]pyridin-2-yl)-3-methoxy-N,N-dimethylbenzamide] |
| 100 to 1000 | 100 to 1000 | COc1cc(C(=O)N(C)C)cnc1-c1cc2ncc(C)c(-c3ccc(OC4CCOCC4)c(C#N)n3)c2o1 [Compound 321, 6-[7-[6-cyano-5-(oxan-4-yloxy)pyridin-2-yl]-6-methylfuro[3,2-b]pyridin-2-yl]-5-methoxy-N,N-dimethylpyridine-3-carboxamide hydrochloride] |
| > 5000 | > 5000 | COc1cc(C(=O)N(C)C)cnc1-c1cc2ncc(C3CC3)c(-c3ccc(OC4CCOCC4)c(C#N)c3)c2o1 [Compound 323, 6-(7-(3-cyano-4-(tetrahydro-2H-pyran-4-yloxy)phenyl)-6-cyclopropylfuro[3,2-b]pyridin-2-yl)-5-methoxy-N,N-dimethylnicotinamide] |
| < 100 | < 100 | COc1cc(C(=O)N(C)CCO)ccc1-c1cc2nccc(-c3ccc(NC4CCOCC4)c(C#N)c3)c2o1 [Compound 230, 4-(7-(3-cyano-4-(tetrahydro-2H-pyran-4-ylamino)phenyl)furo[3,2-b]pyridin-2-yl)-N-(2-hydroxyethyl)-3-methoxy-N-methylbenzamide] |
| 100 to 1000 | 100 to 1000 | COc1cc(C(=O)N(C)C)ccc1-c1cc2ncc(C)c(-c3ccc(OC4CCOCC4)c(C#N)c3)c2o1 [Compound 269, 4-(7-(3-cyano-4-(tetrahydro-2H-pyran-4-yloxy)phenyl)-6-methylfuro[3,2-b]pyridin-2-yl)-3-methoxy-N,N-dimethylbenzamide hydrochloride] |
| < 100 | < 100 | N#Cc1cc(-c2ccnc3cc(-c4ccc(N)cc4)oc23)ccc1OC1CCOCC1 [Compound 126] |

| Compound | IC50 (IKKε) [nM] | IC50 (TBK1) [nM] |
| --- | --- | --- |
| COc1cc(C(=O)N2C3COCC2CC(O)C3)ccc1-c1cc2nccc(-c3ccc(OC4CCOCC4)c(C#N)c3)c2o1 (stereo not drawn) [Compound 66, 5-{2-[4-(7-Hydroxy-3-oxa-9-aza-bicyclo[3.3.1]nonane-9-carbonyl)-2-methoxy-phenyl]-furo[3,2-b]pyridin-7-yl}-2-(tetrahydro-pyran-4-yloxy)-benzonitrile] | < 100 | < 100 |
